# What was measured:
# [1] = test system: Staphylococcus aureus strain which is resistant to rifampicin (Staph. aureus Tour); test: in vitro minimal inhibitory concentration against rifampicin-resistant Staphylococcus aureus strain; format: cell-based; conditions: Staphylococcus aureus, read-out: Minimal inhibitory concentration
# Experimental: In particular, compounds illustrative of the invention at concentrations of about 10 to 20 μg/ml or less inhibit the growth of a Staph. aureus Tour strain resistant to rifampicin.
# One of the most important characteristics of the new hydrazones is their activity against rifampicin-resistant Staphylococcus aureus strains. Rifampicin, that is 3-(4-methyl-1-piperazinyl)iminomethylrifamycin SV, disclosed in U.S. Pat. No. 3,342,810, is the most known and widely used rifamycin derivative in therapeutic practice.
# The data of the new compounds are compared with those of representative hydrazones disclosed in U.S. Pat. No. 3,342,810.
# [2] = biological target: T1, mouse embryo RNA-polymerase I (ME-RNA-P1) (Mus musculus, UniProt O35134+P70700); test: effect on mouse embryo RNA-polymerase I; format: biochemical; conditions: Single Stranded Calf-Thymus DNA; for remaining activity at 10 µg: 10μg, read-out: % Control Activity of ME-RNA-P1 at 10μg; for remaining activity at 100 µg: 100μg, read-out: % Control Activity of ME-RNA-P1 at 100μg
# T1 construct: mouse embryo RNA-polymerase I (ME-RNA-P1); endogenous in cells; host or cells: mouse embryo cells
# Description: (§1) Calf-Thymus DNA. Me-RNA-P1 and ME-RNA-P2 : Single Stranded
# [3] = test system: mouse embryo DNA-polymerase II (ME-DNA-P2); test: effect on mouse embryo DNA-polymerase II; format: biochemical; conditions: activated Calf-Thymus DNA
# Description: (§2) Oligo dT.Poly rA. ME-DNA-P1 and ME-DNA-p2 : activated
# [4] = test system: mouse embryo DNA-polymerase I (ME-DNA-P1); test: effect on mouse embryo DNA-polymerase I; format: biochemical; conditions: activated Calf-Thymus DNA
# Description: as §2
# [5] = biological target: T2, mouse embryo RNA-polymerase II (ME-RNA-P2) (Mus musculus, UniProt P08775+Q8CFI7); test: effect on mouse embryo RNA-polymerase II; format: biochemical; conditions: Single Stranded Calf-Thymus DNA; for remaining activity at 10 µg: 10μg, read-out: % Control Activity of ME-RNA-P2 at 10μg; for remaining activity at 100 µg: 100μg, read-out: % Control Activity of ME-RNA-P2 at 100μg
# T2 construct: mouse embryo RNA-polymerase II (ME-RNA-P2); endogenous in cells; host or cells: mouse embryo cells
# Description: as §1
# [6] = biological target: T3, sarcoma virus DNA-polymerases (SSV-DNA-P) (Woolly monkey sarcoma virus, UniProt P03359); test: effect on activity of SSV-polymerase; format: biochemical; conditions: template Oligo dT.Poly rA
# T3 construct: sarcoma virus DNA-polymerases (SSV-DNA-P)
# Description: Templates used in the Enzymatic Assays were the following: SSV-DNA-P: […]
# T3 sequence (P03359 642-1310): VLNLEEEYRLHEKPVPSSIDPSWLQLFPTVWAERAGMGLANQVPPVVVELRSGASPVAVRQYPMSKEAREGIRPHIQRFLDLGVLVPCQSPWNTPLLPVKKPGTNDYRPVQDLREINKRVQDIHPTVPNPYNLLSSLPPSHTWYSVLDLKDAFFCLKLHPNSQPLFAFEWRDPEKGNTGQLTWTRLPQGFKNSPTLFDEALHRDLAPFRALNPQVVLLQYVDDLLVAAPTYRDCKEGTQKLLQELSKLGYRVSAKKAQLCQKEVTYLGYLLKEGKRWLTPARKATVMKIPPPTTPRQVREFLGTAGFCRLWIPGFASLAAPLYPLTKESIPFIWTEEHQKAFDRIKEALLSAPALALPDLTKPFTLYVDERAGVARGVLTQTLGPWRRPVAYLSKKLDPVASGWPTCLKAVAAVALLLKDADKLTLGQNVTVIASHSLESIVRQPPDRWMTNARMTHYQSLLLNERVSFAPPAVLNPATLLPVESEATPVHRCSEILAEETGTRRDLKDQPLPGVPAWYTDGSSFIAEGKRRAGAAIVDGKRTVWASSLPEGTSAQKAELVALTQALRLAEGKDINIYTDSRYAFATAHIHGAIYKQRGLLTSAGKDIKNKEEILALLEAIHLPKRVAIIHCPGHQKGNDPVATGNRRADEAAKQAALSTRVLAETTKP
structure (smiles),measurement,setting,value
COC1C=COC2(C)Oc3c(C)c(O)c4c(O)c(c(C=NNc5ccccc5[N+](=O)[O-])c(O)c4c3C2=O)NC(=O)C(C)=CC=CC(C)C(O)C(C)C(O)C(C)C(OC(C)=O)C1C (stereo not shown) [Example 35],MIC,[1],20 µg/mL
COC1C=COC2(C)Oc3c(C)c(O)c4c(c3C2=O)C2(C=C(NC(=O)C(C)=CC=CC(C)C(O)C(C)C(O)C(C)C(OC(C)=O)C1C)C4=O)OCC(=O)O2 (stereo not shown) [rifamycin O],remaining activity at 10 µg,[2],77%
same,remaining activity at 100 µg,[2],75%
same,% Control Activity of ME-DNA-P2 at 10μg,[3],97%
same,% Control Activity of ME-DNA-P2 at 100μg,[3],5%
same,% Control Activity of ME-DNA-P1 at 10μg,[4],92%
same,% Control Activity of ME-DNA-P1 at 100μg,[4],65%
same,remaining activity at 10 µg,[5],93%
same,remaining activity at 100 µg,[5],65%
same,% Control Activity of SSV-DNA-P at 5μg,[6],100%
same,% Control Activity of SSV-DNA-P at 10μg,[6],98%
same,% Control Activity of SSV-DNA-P at 100μg,[6],83%
COc1ccccc1NN=Cc1c2c(O)c3c(O)c(C)c4c(c3c1O)C(=O)C(C)(OC=CC(OC)C(C)C(OC(C)=O)C(C)C(O)C(C)C(O)C(C)C=CC=C(C)C(=O)N2)O4 (stereo not shown) [Example 33],MIC,[1],50 µg/mL
CNN=Cc1c2c(O)c3c(O)c(C)c4c(c3c1O)C(=O)C(C)(OC=CC(OC)C(C)C(OC(C)=O)C(C)C(O)C(C)C(O)C(C)C=CC=C(C)C(=O)N2)O4 (stereo not shown) [N-Methylhydrazone of 3-formylrifamycin SV],MIC,[1],> 100 µg/mL
COC1C=COC2(C)Oc3c(C)c(O)c4c(O)c(c(C=NNc5cc(-c6ccccc6)nc6cc(C(F)(F)F)ccc56)c(O)c4c3C2=O)NC(=O)C(C)=CC=CC(C)C(O)C(C)C(O)C(C)C(OC(C)=O)C1C (stereo not shown) [Example 23],MIC,[1],20 µg/mL
COC1C=COC2(C)Oc3c(C)c(O)c4c(O)c(c(C=NNC56CC7CC(CC(C7)C5)C6)c(O)c4c3C2=O)NC(=O)C(C)=CC=CC(C)C(O)C(C)C(O)C(C)C(OC(C)=O)C1C (stereo not shown) [Example 47],MIC,[1],5 µg/mL
CO[C@H]1/C=C/O[C@@]2(C)Oc3c(C)c(O)c4c(c3C2=O)C(=O)C=C(NC(=O)/C(C)=C\C=C\[C@H](C)[C@H](O)[C@@H](C)[C@@H](O)[C@@H](C)[C@H](OC(C)=O)[C@@H]1C)C4=O [rifamycin S],remaining activity at 10 µg,[2],102%
same,remaining activity at 100 µg,[2],90%
same,% Control Activity of ME-DNA-P2 at 10μg,[3],94%
same,% Control Activity of ME-DNA-P2 at 100μg,[3],9%
same,% Control Activity of ME-DNA-P1 at 10μg,[4],84%
same,% Control Activity of ME-DNA-P1 at 100μg,[4],86%
same,remaining activity at 10 µg,[5],78%
same,remaining activity at 100 µg,[5],81%
same,% Control Activity of SSV-DNA-P at 5μg,[6],88%
same,% Control Activity of SSV-DNA-P at 10μg,[6],108%
same,% Control Activity of SSV-DNA-P at 100μg,[6],100%
CCCCCN(CCCCC)N=Cc1c2c(O)c3c(O)c(C)c4c(c3c1O)C(=O)C(C)(OC=CC(OC)C(C)C(OC(C)=O)C(C)C(O)C(C)C(O)C(C)C=CC=C(C)C(=O)N2)O4 (stereo not shown) [Example 46],MIC,[1],1 µg/mL
COC1C=COC2(C)Oc3c(C)c(O)c4c(O)c(c(C=NNC5CCCC5)c(O)c4c3C2=O)NC(=O)C(C)=CC=CC(C)C(O)C(C)C(O)C(C)C(OC(C)=O)C1C (stereo not shown) [Example 1],MIC,[1],20 µg/mL
"CCN(CC)N=Cc1c2c(O)c3c(O)c(C)c4c(c3c1O)C(=O)C(C)(OC=CC(OC)C(C)C(OC(C)=O)C(C)C(O)C(C)C(O)C(C)C=CC=C(C)C(=O)N2)O4 (stereo not shown) [N,N-Diethylhydrazone of 3-formylrifamycin SV]",MIC,[1],> 100 µg/mL
COC1C=COC2(C)Oc3c(C)c(O)c4c(O)c(c(C=NN(C)Cc5ccc(-c6ccccc6)cc5)c(O)c4c3C2=O)NC(=O)C(C)=CC=CC(C)C(O)C(C)C(O)C(C)C(OC(C)=O)C1C (stereo not shown) [Example 42],MIC,[1],5 µg/mL
COC1C=COC2(C)Oc3c(C)c(O)c4c(O)c(c(C=NNc5ccccc5)c(O)c4c3C2=O)NC(=O)C(C)=CC=CC(C)C(O)C(C)C(O)C(C)C(OC(C)=O)C1C (stereo not shown) [Phenylhydrazone of 3-formylrifamycin SV],MIC,[1],100 µg/mL
COC1C=COC2(C)Oc3c(C)c(O)c4c(O)c(c(C=NNCCOc5c(Cl)cc(N)cc5Cl)c(O)c4c3C2=O)NC(=O)C(C)=CC=CC(C)C(O)C(C)C(O)C(C)C(OC(C)=O)C1C (stereo not shown) [Example 34],MIC,[1],50 µg/mL
CO[C@H]1/C=C/O[C@@]2(C)Oc3c(C)c(O)c4c(O)c(cc(O)c4c3C2=O)NC(=O)/C(C)=C\C=C\[C@H](C)[C@H](O)[C@@H](C)[C@@H](O)[C@@H](C)[C@H](OC(C)=O)[C@@H]1C [rifamycin SV],remaining activity at 10 µg,[2],84%
same,remaining activity at 100 µg,[2],106%
same,% Control Activity of ME-DNA-P2 at 5μg,[3]; 5μg,94%
same,% Control Activity of ME-DNA-P2 at 10μg,[3],100%
same,% Control Activity of ME-DNA-P2 at 100μg,[3],72%
same,% Control Activity of ME-DNA-P1 at 5μg,[4]; 5μg,91%
same,% Control Activity of ME-DNA-P1 at 10μg,[4],95%
same,% Control Activity of ME-DNA-P1 at 100μg,[4],105%
same,remaining activity at 5 µg,"[5]; 5μg, read-out: % Control Activity of ME-RNA-P2 at 5μg",89%
same,remaining activity at 10 µg,[5],87%
same,remaining activity at 100 µg,[5],82%
same,% Control Activity of SSV-DNA-P at 5μg,[6],105%
same,% Control Activity of SSV-DNA-P at 10μg,[6],75%
same,% Control Activity of SSV-DNA-P at 100μg,[6],61%
COC1C=COC2(C)Oc3c(C)c(O)c4c(O)c(c(C=NNc5ccc(C(=O)O)cc5)c(O)c4c3C2=O)NC(=O)C(C)=CC=CC(C)C(O)C(C)C(O)C(C)C(OC(C)=O)C1C (stereo not shown) [p-Carboxyphenylhydrazone of 3-formylrifamycin SV],MIC,[1],> 100 µg/mL
COC1C=COC2(C)Oc3c(C)c(O)c4c(O)c(c(C=NNc5ccnc6c(C(F)(F)F)cccc56)c(O)c4c3C2=O)NC(=O)C(C)=CC=CC(C)C(O)C(C)C(O)C(C)C(OC(C)=O)C1C (stereo not shown) [Example 22],MIC,[1],50 µg/mL
COC1C=COC2(C)Oc3c(C)c(O)c4c(O)c(c(C=NNc5cccc(C)c5)c(O)c4c3C2=O)NC(=O)C(C)=CC=CC(C)C(O)C(C)C(O)C(C)C(OC(C)=O)C1C (stereo not shown) [Example 26],MIC,[1],20 µg/mL
COC1C=COC2(C)Oc3c(C)c(O)c4c(O)c(c(C=NNc5cc(C)c6cccc(C)c6n5)c(O)c4c3C2=O)NC(=O)C(C)=CC=CC(C)C(O)C(C)C(O)C(C)C(OC(C)=O)C1C (stereo not shown) [Example 25],MIC,[1],20 µg/mL
COC1C=COC2(C)Oc3c(C)c(O)c4c(O)c(c(C=NNc5ccc(F)cc5)c(O)c4c3C2=O)NC(=O)C(C)=CC=CC(C)C(O)C(C)C(O)C(C)C(OC(C)=O)C1C (stereo not shown) [Example 37],MIC,[1],50 µg/mL
"COC1C=COC2(C)Oc3c(C)c(O)c4c(O)c(c(C=NNc5cccc(C(F)(F)F)c5)c(O)c4c3C2=O)NC(=O)C(C)=CC=CC(C)C(O)C(C)C(O)C(C)C(OC(C)=O)C1C (stereo not shown) [Example 43, 3-Formylrifamycin SV: hydrazone of ((3-trifluoromethyl)-phenyl) hydrazine]",MIC,[1],10 µg/mL
COC1C=COC2(C)Oc3c(C)c(O)c4c(O)c(c(C=NNc5c(C)cc(C(C)(C)C)cc5C)c(O)c4c3C2=O)NC(=O)C(C)=CC=CC(C)C(O)C(C)C(O)C(C)C(OC(C)=O)C1C (stereo not shown) [Example 41],MIC,[1],20 µg/mL
CCCCCN(C)N=Cc1c2c(O)c3c(O)c(C)c4c(c3c1O)C(=O)C(C)(OC=CC(OC)C(C)C(OC(C)=O)C(C)C(O)C(C)C(O)C(C)C=CC=C(C)C(=O)N2)O4 (stereo not shown) [Example 3],MIC,[1],10 µg/mL
COC1C=COC2(C)Oc3c(C)c(O)c4c(O)c(c(C=NNc5ccccc5C)c(O)c4c3C2=O)NC(=O)C(C)=CC=CC(C)C(O)C(C)C(O)C(C)C(OC(C)=O)C1C (stereo not shown) [Example 38],MIC,[1],20 µg/mL
COC1C=COC2(C)Oc3c(C)c(O)c4c(O)c(c(C=NNc5c(Cl)cc(Cl)cc5Cl)c(O)c4c3C2=O)NC(=O)C(C)=CC=CC(C)C(O)C(C)C(O)C(C)C(OC(C)=O)C1C (stereo not shown) [Example 39],MIC,[1],5 µg/mL
COC1C=COC2(C)Oc3c(C)c(O)c4c(O)c(cc(OCC(=O)O)c4c3C2=O)NC(=O)C(C)=CC=CC(C)C(O)C(C)C(O)C(C)C(OC(C)=O)C1C (stereo not shown) [rifamycin B],remaining activity at 10 µg,[2],76%
same,remaining activity at 100 µg,[2],85%
same,% Control Activity of ME-DNA-P2 at 10μg,[3],46%
same,% Control Activity of ME-DNA-P2 at 100μg,[3],4%
same,% Control Activity of ME-DNA-P1 at 10μg,[4],103%
same,% Control Activity of ME-DNA-P1 at 100μg,[4],81%
same,remaining activity at 10 µg,[5],102%
same,remaining activity at 100 µg,[5],95%
same,% Control Activity of SSV-DNA-P at 5μg,[6],96%
same,% Control Activity of SSV-DNA-P at 10μg,[6],104%
same,% Control Activity of SSV-DNA-P at 100μg,[6],75%
COC1C=COC2(C)Oc3c(C)c(O)c4c(O)c(c(C=NNC5CCCCC5)c(O)c4c3C2=O)NC(=O)C(C)=CC=CC(C)C(O)C(C)C(O)C(C)C(OC(C)=O)C1C (stereo not shown) [Example 2],MIC,[1],20 µg/mL
COC1C=COC2(C)Oc3c(C)c(O)c4c(O)c(c(C=NNc5cccc([N+](=O)[O-])c5)c(O)c4c3C2=O)NC(=O)C(C)=CC=CC(C)C(O)C(C)C(O)C(C)C(OC(C)=O)C1C (stereo not shown) [Example 36],MIC,[1],50 µg/mL

# Reference: patent US4005076A, “Hydrazones of 3-formylrifamycin SV” (Gruppo Lepetit S.p.A., priority 1971, dated 1977)
